Test results as given in patent publication US12655116B2, “Substituted isophthalic acid diamides” (Bayer Aktiengesellschaft, priority 2020, dated 2026).

Experiments:
ABUTH [1] = assay: Pre-emergence herbicidal action against ABUTH; format: in vivo, Abutilon theophrasti
Outline: (§1)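 Pre-emergence soil-surface spray of formulated compound (WP or EC; 600 to 800 l/ha; 0.2% wetting agent) over seeds sown in sandy loam. After 3 weeks under greenhouse conditions, damage is estimated visually in percent against untreated plants.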

ALOMY [2] = assay: Pre-emergence herbicidal action against ALOMY; format: in vivo, Alopecurus myosuroides; settings: pre-emergence
Outline: as §1

AMARE [3] = assay: Pre-emergence herbicidal action against AMARE; format: in vivo, Amaranthus retroflexus
Outline: as §1

AVEFA [4] = assay: Pre-emergence herbicidal action against AVEFA; format: in vivo, Avena fatua; settings: 80 g/ha, pre-emergence
Outline: as §1

ECHCG [5] = assay: Pre-emergence herbicidal action against ECHCG; format: in vivo, Echinochloa crus-galli; settings: 80 g/ha
Outline: as §1

HORMU [6] = assay: Pre-emergence herbicidal action against HORMU; format: in vivo, Hordeum murinum; settings: 80 g/ha, pre-emergence
Outline: as §1

LOLRI = assay: Pre-emergence herbicidal action against LOLRI; format: in vivo, Lolium rigidum; settings: 80 g/ha
Outline: as §1

MATIN [7] = assay: Pre-emergence herbicidal action against MATIN; format: in vivo, Matricaria inodora
Outline: as §1

PHBPU [8] = assay: Pre-emergence herbicidal action against PHBPU; format: in vivo, Pharbitis purpurea; settings: dosage 80 g/ha
Outline: as §1

POLCO = assay: Pre-emergence herbicidal action against POLCO; format: in vivo, Polygonum convolvulus; settings: dosage 80 g/ha
Outline: as §1

SETVI [9] = assay: Pre-emergence herbicidal action against SETVI; format: in vivo, Setaria viridis
Outline: as §1

STEME [10] = assay: Pre-emergence herbicidal action against STEME; format: in vivo, Stellaria media
Outline: as §1

VERPE [11] = assay: Pre-emergence herbicidal action against VERPE; format: in vivo, Veronica persica; settings: dosage 80 g/ha
Outline: as §1

VIOTR [12] = assay: Pre-emergence herbicidal action against VIOTR; format: in vivo, Viola tricolor
Outline: as §1

DIGSA [13] = assay: Pre-emergence herbicidal action against DIGSA; format: in vivo, Digitaria sanguinalis
Outline: as §1

ABUTH [14] = assay: Post-emergence herbicidal action against ABUTH; format: in vivo, Abutilon theophrasti; settings: visual assessment about 3 weeks after treatment vs untreated controls
Outline: (§2)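 Greenhouse plants in sandy loam were sprayed at the one-leaf stage, 2 to 3 weeks after sowing, with WP or EC formulations as aqueous suspension or emulsion (600 to 800 l/ha water, 0.2% wetting agent). Visual damage was scored about 3 weeks later versus untreated controls, 0% = like control, 100% = dead.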

ALOMY [15] = assay: Post-emergence herbicidal action against ALOMY; format: in vivo, Alopecurus myosuroides; settings: dosage 20 g/ha, visual assessment about 3 weeks after treatment vs untreated controls
Outline: as §2

AMARE [16] = assay: Post-emergence herbicidal action against AMARE; format: in vivo, Amaranthus retroflexus; settings: 20 g/ha, visual assessment about 3 weeks after treatment, 100% = plants have died, 0% = like control plants
Outline: as §2

ECHCG [17] = assay: Post-emergence herbicidal action against ECHCG; format: in vivo, Echinochloa crus-galli; settings: dosage 20 g/ha
Outline: as §2

HORMU [18] = assay: Post-emergence herbicidal action against HORMU; format: in vivo, Hordeum murinum; settings: dosage 20 g/ha
Experimental: Seeds of monocotyledonous and dicotyledonous weed and crop plants are laid out in sandy loam soil in wood-fiber pots, covered with soil and cultivated in a greenhouse under good growth conditions. 2 to 3 weeks after sowing, the test plants are treated at the one-leaf stage. The compounds of the invention, formulated in the form of wettable powders (WP) or as emulsion concentrates (EC), are then sprayed onto the green parts of the plants in the form of an aqueous suspension or emulsion at a water application rate equivalent to 600 to 800 l/ha, with addition of 0.2% wetting agent. After the test plants have been left to stand in the greenhouse under optimal growth conditions for about 3 weeks, the action of the preparations is assessed visually in comparison to untreated controls (herbicidal action in percent (%): 100% activity=the plants have died, 0% activity=like control plants). […] The tables below illustrate, in an illustrative manner, the post-emergence herbicidal action of the compounds of the invention, the herbicidal activity being stated in percent.

MATIN [19] = assay: Post-emergence herbicidal action against MATIN; format: in vivo, Matricaria inodora
Outline: as §2

PHBPU [20] = assay: Post-emergence herbicidal action against PHBPU; format: in vivo, Pharbitis purpurea; settings: dosage 20 g/ha
Outline: as §2

STEME [21] = assay: Post-emergence herbicidal action against STEME; format: in vivo, Stellaria media
Outline: as §2

VERPE [22] = assay: Post-emergence herbicidal action against VERPE; format: in vivo, Veronica persica
Outline: as §2

VIOTR [23] = assay: Post-emergence herbicidal action against VIOTR; format: in vivo, Viola tricolor
Outline: as §2

AVEFA [24] = assay: Post-emergence herbicidal action against AVEFA; format: in vivo, Avena fatua; settings: Avena fatua, 504 h, visual assessment about 3 weeks after treatment, 100% = plants have died, 0% = like control plants
Outline: as §2

SETVI [25] = assay: Post-emergence herbicidal action against SETVI; format: in vivo, Setaria viridis; settings: Setaria viridis, 504 h
Outline: as §2

DIGSA [26] = assay: Post-emergence herbicidal action against DIGSA; format: in vivo, Digitaria sanguinalis; settings: Digitaria sanguinalis, 504 h
Outline: as §2

[27] = 80 g/ha, scored visually after 3 weeks vs untreated controls (100% = plants have died, 0% = like control plants)
[28] = Tripleurospermum inodorum, 504 h, dosage 20 g/ha

## CCn1nnnc1NC(=O)c1ccc(C(F)F)c(C(=O)NC2CC2)c1C [Example 2-46]
ABUTH [1]; [27]
  Pre-emergence action against ABUTH (herbicidal activity): 100%
ABUTH [1]; dosage 20 g/ha, scored visually after 3 weeks vs untreated controls, 100% = plants have died, 0% = like control plants
  Pre-emergence action against ABUTH (herbicidal activity in percent): 100%
ALOMY [2]; [27]
  Pre-emergence action against ALOMY (herbicidal activity): 100%
AMARE [3]; 20 g/ha, scored visually after 3 weeks vs untreated controls, 100% = plants have died, 0% = like control plants
  Pre-emergence action against AMARE in %: 100%
AMARE [3]; [27]
  Pre-emergence action against AMARE in %: 100%
AVEFA [4]
  Pre-emergence action against AVEFA in %: 100%
ECHCG [5]
  Pre-emergence action against ECHCG in %: 90%
HORMU [6]
  Pre-emergence action against HORMU in %: 90%
LOLRI
  Pre-emergence action against LOLRI in %: 90%
MATIN [7]; dosage 20 g/ha
  Pre-emergence action against MATIN in %: 90%
MATIN [7]; dosage 80 g/ha
  Pre-emergence action against MATIN in %: 100%
PHBPU [8]
  Pre-emergence action against PHBPU in %: 90%
POLCO
  Pre-emergence action against POLCO in %: 90%
SETVI [9]; dosage 80 g/ha
  Pre-emergence action against SETVI in %: 100%
STEME [10]; dosage 20 g/ha
  Pre-emergence action against STEME in %: 90%
STEME [10]; dosage 80 g/ha
  Pre-emergence action against STEME in %: 100%
VERPE [11]
  Pre-emergence action against VERPE in %: 90%
VIOTR [12]; dosage 20 g/ha
  Pre-emergence action against VIOTR in %: 100%
VIOTR [12]; dosage 80 g/ha
  Pre-emergence action against VIOTR in %: 100%
DIGSA [13]; dosage 20 g/ha
  Pre-emergence action against DIGSA in %: 100%
DIGSA [13]; dosage 80 g/ha
  Pre-emergence action against DIGSA in %: 100%
ABUTH [14]; dosage 5 g/ha
  Post-emergence action against ABUTH in %: 80%
ABUTH [14]; dosage 20 g/ha
  Post-emergence action against ABUTH in %: 80%
ALOMY [15]
  Post-emergence action against ALOMY in %: 80%
AMARE [16]
  Post-emergence action at 20 g/ha against AMARE in %: 100%
ECHCG [17]
  Post-emergence action against ECHCG in %: 80%
HORMU [18]
  Post-emergence action against HORMU in %: 80%
MATIN [19]; dosage 20 g/ha
  Post-emergence action against MATIN in %: 80%
PHBPU [20]
  Post-emergence action against PHBPU in %: 80%
STEME [21]; 20 g/ha
  Post-emergence action against STEME in %: 80%
STEME [21]; dosage 5 g/ha
  Post-emergence action against STEME in %: 80%
VERPE [22]; 5 g/ha
  Post-emergence action against VERPE in %: 80%
VERPE [22]; 20 g/ha
  Post-emergence action against VERPE in %: 80%
VIOTR [23]; 5 g/ha
  Post-emergence action against VIOTR in %: 80%
VIOTR [23]; 20 g/ha
  Post-emergence action against VIOTR in %: 80%

## CCn1nnnc1NC(=O)c1ccc(C(F)(F)F)c(C(=O)NC2CC2)c1Cl [Example 2-131]
ABUTH [1]; Abutilon theophrasti, 504 h, 80 g/ha, scored visually after 3 weeks vs untreated controls (100% = plants have died, 0% = like control plants)
  pest or weed control at 80 g/ha: 100%
ABUTH [1]; Abutilon theophrasti, 504 h, dosage 20 g/ha, scored visually after 3 weeks vs untreated controls, 100% = plants have died, 0% = like control plants, read-out: Pre-emergence action against ABUTH (herbicidal activity in percent)
  pest or weed control at 20 g/ha: 100%
ALOMY [2]; Alopecurus myosuroides, 504 h, 80 g/ha, scored visually after 3 weeks vs untreated controls (100% = plants have died, 0% = like control plants)
  pest or weed control at 80 g/ha: 100%
ALOMY [2]; Alopecurus myosuroides, 504 h, 20 g/ha, scored visually after 3 weeks, 100% = plants have died, 0% = like control plants
  pest or weed control at 20 g/ha: 90%
AMARE [3]; Amaranthus retroflexus, 504 h, 20 g/ha, scored visually after 3 weeks vs untreated controls, 100% = plants have died, 0% = like control plants
  pest or weed control at 20 g/ha: 100%
AMARE [3]; Amaranthus retroflexus, 504 h, 80 g/ha, scored visually after 3 weeks vs untreated controls, 100% = plants have died, 0% = like control plants
  pest or weed control at 80 g/ha: 100%
AVEFA [4]; Avena fatua, 504 h
  pest or weed control at 80 g/ha: 100%
ECHCG [5]; Echinochloa crus-galli, 504 h
  pest or weed control at 80 g/ha: 100%
HORMU [6]; Hordeum murinum, 504 h
  pest or weed control at 80 g/ha: 80%
MATIN [7]; [28]
  pest or weed control at 20 g/ha: 90%
MATIN [7]; Tripleurospermum inodorum, 504 h, dosage 80 g/ha
  pest or weed control at 80 g/ha: 100%
PHBPU [8]; Ipomoea purpurea, 504 h
  pest or weed control at 80 g/ha: 80%
POLCO; Fallopia convolvulus, 504 h
  pest or weed control at 80 g/ha: 90%
SETVI [9]; Setaria viridis, 504 h, dosage 20 g/ha
  pest or weed control at 20 g/ha: 80%
SETVI [9]; Setaria viridis, 504 h, dosage 80 g/ha
  pest or weed control at 80 g/ha: 100%
STEME [10]; Stellaria media, 504 h, dosage 20 g/ha
  pest or weed control at 20 g/ha: 100%
STEME [10]; Stellaria media, 504 h, dosage 80 g/ha
  pest or weed control at 80 g/ha: 100%
VIOTR [12]; Viola tricolor, 504 h, dosage 20 g/ha
  pest or weed control at 20 g/ha: 100%
VIOTR [12]; Viola tricolor, 504 h, dosage 80 g/ha
  pest or weed control at 80 g/ha: 100%
DIGSA [13]; Digitaria sanguinalis, 504 h, dosage 20 g/ha
  pest or weed control at 20 g/ha: 90%
DIGSA [13]; Digitaria sanguinalis, 504 h, dosage 80 g/ha
  pest or weed control at 80 g/ha: 100%
ABUTH [14]; Abutilon theophrasti, 504 h, dosage 20 g/ha
  pest or weed control at 20 g/ha: 90%
ALOMY [15]; Alopecurus myosuroides, 504 h
  pest or weed control at 20 g/ha: 80%
AMARE [16]; Amaranthus retroflexus, 504 h
  pest or weed control at 20 g/ha: 100%
AVEFA [24]; 5 g/ha
  pest or weed control at 5 g/ha: 80%
AVEFA [24]; 20 g/ha
  pest or weed control at 20 g/ha: 80%
ECHCG [17]; Echinochloa crus-galli, 504 h
  pest or weed control at 20 g/ha: 80%
HORMU [18]; Hordeum murinum, 504 h
  pest or weed control at 20 g/ha: 100%
MATIN [19]; Tripleurospermum inodorum, 504 h, dosage 5 g/ha
  pest or weed control at 5 g/ha: 90%
MATIN [19]; [28]
  pest or weed control at 20 g/ha: 100%
PHBPU [20]; Ipomoea purpurea, 504 h
  pest or weed control at 20 g/ha: 80%
SETVI [25]; dosage 5 g/ha
  pest or weed control at 5 g/ha: 90%
SETVI [25]; dosage 20 g/ha
  pest or weed control at 20 g/ha: 100%
STEME [21]; Stellaria media, 504 h, 20 g/ha
  pest or weed control at 20 g/ha: 90%
STEME [21]; Stellaria media, 504 h, dosage 5 g/ha
  pest or weed control at 5 g/ha: 90%
VIOTR [23]; Viola tricolor, 504 h, 5 g/ha
  pest or weed control at 5 g/ha: 100%
VIOTR [23]; Viola tricolor, 504 h, 20 g/ha
  pest or weed control at 20 g/ha: 100%
DIGSA [26]; 5 g/ha
  pest or weed control at 5 g/ha: 90%
DIGSA [26]; 20 g/ha
  pest or weed control at 20 g/ha: 90%
